{"source": "patent US11096910B2", "about": "“Metabolically robust analogs of CYP-eicosanoids for the treatment of cardiac disease” (OMEICOS THERAPEUTICS GMBH, priority 2015, dated 2021)", "key": {"[1]": {"experiment": "Plasma pharmacokinetics after single intravenous and oral administration", "parameters": "species or system male C57BL/6 mice", "conditions": "male, C57BL/6, mouse, in vivo", "protocol": "To gain insight into pharmacological properties of synthetic 17,18-EEQ agonists pharmacokinetic studies were performed with two selected compounds (Comp-02 and Comp-06). These compounds were pharmacologically evaluated in plasma after single intravenous and oral administration. Therefore, male C57BL/6 mice (Janvier Labs (France), n=12 per group) were administered to the test item at a dose of 2 mg/kg (i.v.) and 8 mg/kg (p.o.), respectively. Intravenous application of Comp-02 (sodium salt in isotonic salt solution) and Comp-06 (free acid in DMSO/PEG400 20:80) was performed via the tail vein, and for oral administration via gavage. […] Blood sampling was of 100 μl were obtained at two different time point for each mouse (0.083/2 h, 0.25/4 h, 0.5/8 h and 1/24 h). Biological samples were subjected to an extraction procedure (40 μl Acetonitril+22.4 μl sample, shaking, 10 min centrifugation at 6000×g at room temperature, dilution of 50 μl supernatant 1:1 with water). For analysis 20 μl of sample were injected into the LC-MS, Accela 1250 UHPLC system, Accela Open Autosampler, Q-Exactive mass spectrometer (Thermo Fisher Scientific). Appropriate samples were used as controls: zero sample, calibration standard and QC sample. The pharmacokinetic analysis were performed applying a non-compartment model using the Kinetica 5.0 software (Thermo Scientific, Waltham, USA). All given parameters were obtained by trapezoid area calculation."}, "[2]": {"experiment": "Aqueous solubility", "format": "physicochemical", "conditions": "for solubility at 24 h: deionised water, 37 °C, pH 5.9, water, thermodynamic from solid, pH 5.90, 24 hours agitation", "protocol": "Known amounts of the compounds were suspended by agitation for 24 hours. The filtrates were isolated and content of the appropriate compounds was determined by HPLC analysis."}, "[3]": {"system": "male B16 mice", "experiment": "Atrial fibrillation induced by programmed electrical stimulation in a mouse model of moderate cardiac hypertrophy", "format": "in vivo", "protocol": "Study design: To gain insight into in-vivo effect of synthetic 17,18-EEQ-agonists, atrial fibrillation studies were performed in male B16 mice as described in Westphal, C. et al., PLoS ONE. 2013, 8(8): e73490. Briefly, moderate cardiac hypertrophy was induced by continuous infusion of isoproterenol via subcutaneously implanted osmotic minipumps (Alzet) at a rate of 40 mg/kg/d for two weeks. After two weeks of treatment, ECG and electrophysiological data were recorded. Programmed electrical stimulation (PES) was performed in the right atrium or right ventricle using a digital electrophysiology lab (EP Tracer; CardioTek) to determine refractory periods and arrhythmia inducibility. Atrial arrhythmias were defined as fast (>800 bpm) electrical activity in the right atrial electrograms, with ECG P waves different to normal sinus rhythm and subsequent fast, but physiological activation of the ventricles (ECG R wave and right ventricular electrograms similar to normal sinus rhythm). Atrial fibrillation was defined as fast, irregular activity in the right atrial electrograms with irregular conduction to the ventricles (high variability of R—R intervals). Ventricular arrhythmias were defined by fast (>800 bpm) activity originating from the ventricular myocardium (change in morphology of ECG R waves and local right ventricular electrograms compared to normal sinus rhythm). During inhalation anesthesia with isoflurane (2% with 360 ml/min air flow; Univentor 400 anesthesia unit), the animals' body temperature was kept constant at 37° C. using a homeothermic blanket control unit (Hugo Sachs Elektronik, Harvard Apparatus) with rectal temperature control. After preparation of the right jugular vein, a 2 French octapolar electrophysiology catheter (CIB'ER mouse cath; NuMed) was placed in the right heart, including atrium and ventricle. PES was performed using a standardized protocol that included trains of 10 basal stimuli (S1) followed by up to 3 extra stimuli (S2-S4), delivered with a coupling interval decreasing in steps of 5 ms until ventricular or atrial refractoriness was reached. The stimulation procedures were repeated at three different basal cycle lengths (100 ms, 90 ms, 80 ms) with each animal. Occurrence and duration of inducible arrhythmias were documented. Only stimulation protocols with reproducible arrhythmias longer than five consecutive beats in ventricle and episodes longer than 350 ms in the atria were considered positive. “Arrhythmia inducibility” was calculated as the percentage of effective (positive) out of total protocols applied. Accordingly, the arrhythmia inducibility of individual animals could take a value of 0, 33, 66 or 100%. […]"}, "[4]": {"biological_target": "T1, human soluble expoxide hydrolase (sEH) (Homo sapiens, UniProt P34913)", "T1 construct": "purchased Cayman Chemicals", "T1 sequence (P34913 1-555)": "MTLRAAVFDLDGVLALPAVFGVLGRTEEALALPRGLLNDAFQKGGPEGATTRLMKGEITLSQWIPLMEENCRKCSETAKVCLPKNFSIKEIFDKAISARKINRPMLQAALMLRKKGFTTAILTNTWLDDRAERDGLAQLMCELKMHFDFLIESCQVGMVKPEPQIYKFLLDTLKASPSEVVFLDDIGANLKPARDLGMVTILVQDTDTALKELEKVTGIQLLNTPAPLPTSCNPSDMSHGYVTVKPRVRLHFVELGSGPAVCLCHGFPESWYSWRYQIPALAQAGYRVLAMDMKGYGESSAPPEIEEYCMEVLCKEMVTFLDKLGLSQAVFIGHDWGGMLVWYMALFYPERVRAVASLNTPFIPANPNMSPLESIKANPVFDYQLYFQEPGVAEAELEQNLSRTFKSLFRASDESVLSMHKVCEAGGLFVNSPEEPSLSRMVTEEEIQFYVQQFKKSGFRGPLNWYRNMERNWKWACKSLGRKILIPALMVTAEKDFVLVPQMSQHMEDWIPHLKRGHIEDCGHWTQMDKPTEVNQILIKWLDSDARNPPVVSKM", "experiment": "In vitro inhibition of recombinant human soluble epoxide hydrolase", "format": "biochemical", "conditions": "10 μM compound, 50 μM 14,15-EET substrate, vs vehicle control", "procedure": "A selection of compounds was tested for the ability to inhibit human soluble expoxide hydrolase (sEH). […] Briefly, the assay was performed at 37° C. for 20 min in a final volume of 100 μL potassium phosphate buffer (0.1 M, pH 7.2) containing 50 μM 14,15-EET as substrate. The reactions were started by adding enzyme (107.5 ng per reaction, 12.06 U/ml activity, Cayman Chemicals) and terminated with 300 μl ethyl acetate. […] Metabolically robust analogs shown in FIG. 5 were tested at final concentration of 10 μM for potency of sEH-inhibition compared to vehicle control (1% DMSO), n=2-4."}, "[5]": {"conditions": "single i.v. injection 2 mg/kg, vs vehicle"}}, "note": "Where two headings read alike, the source gives them in different places.", "data": [{"compound": "CNC(=O)C(=O)NCCCC/C=C\\CCCCCCCOCC(=O)O", "note": "[Comp-02, 2-((13-(2-(methylamino)-2-oxoacetamido)tridec-8(Z)-en-1-yl)oxy)acetic acid]", "values": [{"measurement": "AUC(0-inf)", "setting": "[1]; iv, 2 mg/kg", "result": 524, "unit": "ng·h/mL"}, {"measurement": "bioavailability", "setting": "[1]; iv, 2 mg/kg", "result": 100, "unit": "%"}, {"measurement": "AUC(0-inf)", "setting": "[1]; po, 8 mg/kg", "result": 1820, "unit": "ng·h/mL"}, {"measurement": "Cmax, maximal observed plasma concentration", "setting": "[1]; po, 8 mg/kg", "result": 903.8, "unit": "ng/mL"}, {"measurement": "Tmax", "setting": "[1]; po, 8 mg/kg", "result": 18, "unit": "min"}, {"measurement": "bioavailability", "setting": "[1]; po, 8 mg/kg", "result": 87, "unit": "%"}, {"measurement": "Cmax", "setting": "[1]; po, 8 mg/kg, Cmax, maximal observed plasma concentration", "result": 903, "unit": "ng/mL"}, {"measurement": "solubility in deionised water relative to Comp-06", "setting": "[2]; 37° C.", "result": "~10", "unit": "×"}, {"measurement": "solubility at 24 h", "setting": "[2]; read-out: Average solubility at 37° C.", "result": 68, "unit": "µg/mL"}, {"measurement": "solubility at 24 h", "setting": "[2]; read-out: Highest solubility value at 37° C.", "result": 75, "unit": "µg/mL"}, {"measurement": "solubility at 24 h", "setting": "[2]; read-out: Lowest solubility value at 37° C.", "result": 59, "unit": "µg/mL"}, {"measurement": "obvious negative side effects", "setting": "[3]; single i.v. bolus injection, 2 mg/kg body weight", "result": "did not induce any obvious negative side effects"}, {"measurement": "reduction of the inducibility of sustained arrhythmia episodes", "setting": "[3]; [5]", "result": 62, "unit": "%"}, {"measurement": "severity of induced atrial fibrillation episodes", "setting": "[3]; [5]", "result": "significantly reduced"}, {"measurement": "sum of totally induced atrial fibrillation episodes (atrial fibrillation burden)", "setting": "[3]; [5]", "result": "reduced significantly"}, {"measurement": "inhibition of human sEH", "setting": "[4]", "result": "did not show sEH-inhibition"}]}]}
